These results are taken from ChEMBL document CHEMBL4007384, “Synthesis and optimization of furano[3,2-d]pyrimidines as selective spleen tyrosine kinase (Syk) inhibitors” (Bioorg Med Chem Lett, 2016).

Series [1] relates to Rattus norvegicus. The experiment in a line: Antiarthritic activity in rat model of collagen-induced arthritis assessed as inhibition of paw swelling at 3 mg/kg, bid for 8 days relative to control. It is filed as functional. To be noted: 192 h.
Series [2] in a line: Unbound clearance in rat microsomes. It is filed as ADME, Microsome.
Series [3] in a line: Clearance in dog at 1 mg/kg, iv. To be noted: in vivo. In kind it is ADME, organism-based, Canis lupus familiaris.
Series [4] is described as follows: AUC in rat at 1 mg/kg, po. It is filed as ADME, organism-based. The following applies: in vivo.
Series [5] can be described thus: Cmax in rat at 1 mg/kg, po. Also on record: dose 1 mg/kg, route oral. It is filed as ADME, organism-based. The following applies: in vivo.
Series [6] in a line: Clearance in rat at 1 mg/kg, iv. It is filed as ADME, organism-based. To be noted: in vivo.
Series [7] can be described thus: Solubility in pH 5 FeSSIF at 0.2 mg sonicated for 10 mins followed by incubation for 2 days by HPLC analysis. It is filed as physicochemical.
The test system of series [8] is Rattus norvegicus. The experiment in a line: Antiarthritic activity in po dosed rat model of collagen-induced arthritis assessed as inhibition of paw swelling administered bid for 8 days measured on day 8 up to 12 hrs. It is filed as functional.
For series [9], the target named is Voltage-gated inwardly rectifying potassium channel KCNH2 (Homo sapiens, UniProt Q12809). Nature of the series: Inhibition of human ERG.
The nature of series [10]: Half life in dog at 1 mg/kg, iv. It is filed as ADME, organism-based, Canis lupus familiaris. To be noted: in vivo.
Series [11] relates to Rattus norvegicus. The experiment in a line: Antiarthritic activity in rat model of collagen-induced arthritis assessed as inhibition of paw swelling at 0.3 mg/kg, bid for 8 days relative to control. In kind it is functional. The following applies: 192 h.
Series [12] is described as follows: Cmax in dog at 1 mg/kg, po. It is filed as ADME, organism-based, Canis lupus familiaris. Also on record: dose 1 mg/kg, route oral. To be noted: in vivo.
In series [13] the test system is Rattus norvegicus. Nature of the series: Antiarthritic activity in rat model of collagen-induced arthritis assessed as inhibition of paw swelling at 30 mg/kg, bid for 8 days relative to control. It is filed as functional. To be noted: 192 h.
Series [14] in a line: Volume of distribution at steady state in dog at 1 mg/kg, iv. It is filed as ADME, organism-based, Canis lupus familiaris. To be noted: in vivo, read-out: Vdss.
Series [15] deals with Rattus norvegicus. The experiment in a line: Toxicity in rat model of collagen-induced arthritis at 0.3 to 30 mg/kg, po bid for 8 days. In kind it is organism-based. To be noted: in vivo, 192 h.
The nature of series [16]: Unbound clearance in human microsomes. In kind it is ADME, Microsome.
Series [17] in a line: Oral bioavailability in dog at 1 mg/kg. It is filed as ADME, organism-based, Canis lupus familiaris. To be noted: in vivo.
Series [18] concerns Rattus norvegicus. Nature of the series: Antiarthritic activity in rat model of collagen-induced arthritis assessed as inhibition of paw swelling at 10 mg/kg, bid for 8 days relative to control. The following applies: 192 h. It is filed as functional.
Series [19] is described as follows: Cytotoxicity against human HepG2 cells. It is filed as cell-based.
Series [20] deals with Rattus norvegicus. The experiment in a line: Antiarthritic activity in rat model of collagen-induced arthritis assessed as inhibition of paw swelling at 1 mg/kg, bid for 8 days relative to control. It is filed as functional. To be noted: 192 h.
Series [21] is described as follows: Oral bioavailability in rat at 1 mg/kg. It is filed as ADME, organism-based. To be noted: in vivo.
Series [22] in a line: AUC in dog at 1 mg/kg, po. In kind it is ADME, organism-based, Canis lupus familiaris. The following applies: in vivo.
Series [23] has as its target Cytochrome P450 3A4 (Homo sapiens, UniProt P08684). Nature of the series: Time-dependent inhibition of CYP3A4 in human liver microsomes at 10 to 50 uM. In kind it is ADME.
Series [24] in a line: Volume of distribution at steady state in rat at 1 mg/kg, iv. The following applies: in vivo, read-out: Vdss. In kind it is ADME, organism-based.
Series [25] concerns Rattus norvegicus. The experiment in a line: Antiarthritic activity in po dosed rat model of collagen-induced arthritis assessed as inhibition of paw swelling administered bid for 8 days. The following applies: 192 h.
Series [26] can be described thus: Half life in rat at 1 mg/kg, iv. In kind it is ADME, organism-based. To be noted: in vivo.

Voltage-gated inwardly rectifying potassium channel KCNH2, sequence (Q12809 whole entry): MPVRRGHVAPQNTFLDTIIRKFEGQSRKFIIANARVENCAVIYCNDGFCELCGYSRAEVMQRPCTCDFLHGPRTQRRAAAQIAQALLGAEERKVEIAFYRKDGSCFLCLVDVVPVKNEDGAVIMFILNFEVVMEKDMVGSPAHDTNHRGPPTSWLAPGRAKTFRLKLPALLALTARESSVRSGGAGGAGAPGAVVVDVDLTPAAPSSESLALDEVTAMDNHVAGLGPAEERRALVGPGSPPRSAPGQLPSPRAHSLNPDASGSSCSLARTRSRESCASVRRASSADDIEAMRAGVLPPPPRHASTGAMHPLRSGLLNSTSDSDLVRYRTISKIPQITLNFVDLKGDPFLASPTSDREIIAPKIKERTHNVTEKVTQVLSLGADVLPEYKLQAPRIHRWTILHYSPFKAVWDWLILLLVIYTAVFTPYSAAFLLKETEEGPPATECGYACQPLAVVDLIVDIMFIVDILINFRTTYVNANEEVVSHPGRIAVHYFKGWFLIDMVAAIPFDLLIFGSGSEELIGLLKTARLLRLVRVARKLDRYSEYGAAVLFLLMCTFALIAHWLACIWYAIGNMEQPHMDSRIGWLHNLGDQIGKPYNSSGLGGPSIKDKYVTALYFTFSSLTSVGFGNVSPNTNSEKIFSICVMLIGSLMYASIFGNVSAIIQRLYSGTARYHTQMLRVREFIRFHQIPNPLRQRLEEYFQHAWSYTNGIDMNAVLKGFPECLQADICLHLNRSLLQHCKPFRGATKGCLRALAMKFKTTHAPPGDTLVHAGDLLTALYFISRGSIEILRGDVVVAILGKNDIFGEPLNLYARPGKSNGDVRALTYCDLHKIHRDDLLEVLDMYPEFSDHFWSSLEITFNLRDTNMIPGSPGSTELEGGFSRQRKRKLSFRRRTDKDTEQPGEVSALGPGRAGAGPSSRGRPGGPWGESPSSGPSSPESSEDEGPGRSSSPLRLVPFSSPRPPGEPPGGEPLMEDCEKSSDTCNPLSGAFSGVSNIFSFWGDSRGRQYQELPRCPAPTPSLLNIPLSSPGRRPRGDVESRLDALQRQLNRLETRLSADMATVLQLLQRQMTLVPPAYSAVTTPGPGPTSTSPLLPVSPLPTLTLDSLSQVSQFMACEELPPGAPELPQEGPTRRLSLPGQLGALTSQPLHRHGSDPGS
Cytochrome P450 3A4, sequence (P08684 whole entry): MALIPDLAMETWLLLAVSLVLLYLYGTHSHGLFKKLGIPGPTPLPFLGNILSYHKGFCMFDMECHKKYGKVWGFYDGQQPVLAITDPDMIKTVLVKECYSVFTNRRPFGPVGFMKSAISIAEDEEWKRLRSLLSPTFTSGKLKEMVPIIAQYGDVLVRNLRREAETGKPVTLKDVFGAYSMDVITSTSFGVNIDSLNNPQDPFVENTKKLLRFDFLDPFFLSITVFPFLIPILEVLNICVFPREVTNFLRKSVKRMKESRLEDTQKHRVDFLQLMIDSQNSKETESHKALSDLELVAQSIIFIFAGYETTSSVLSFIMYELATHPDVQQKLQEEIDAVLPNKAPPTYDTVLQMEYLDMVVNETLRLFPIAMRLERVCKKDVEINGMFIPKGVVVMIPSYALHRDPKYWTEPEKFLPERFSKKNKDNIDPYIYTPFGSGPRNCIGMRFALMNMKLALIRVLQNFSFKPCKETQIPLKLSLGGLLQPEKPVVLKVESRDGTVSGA

Broadly, the inhibition in vivo is the percentage by which the read-out fell short of the control. Take `C[C@]12C=CC(=O)C=C1CC[C@@H]1[C@@H]2[C@@H](O)C[C@@]2(C)[C@H]1CC[C@]2(O)C(=O)CO` [PREDNISOLONE]: the inhibition in vivo at 3 mg/kg in [1] amounted to 86%.

Compound `CC1(C)CCC(=O)Nc2cc(Nc3nc(NCC(F)(F)F)c4occc4n3)ccc21` came in with a CL free in series [2] of 880 mL/min/kg.

As a reminder, the clearance is the volume of plasma or blood freed of the substance per unit of time. Low values mean inefficient removal, high ones efficient removal. The term AUC denotes concentration integrated over time. Read a high AUC as high exposure. As a reminder, the Cmax is the maximum level reached in the sampled fluid or tissue. As usually defined, the solubility is the dissolved amount per volume that the medium holds. The low end stands for a poorly soluble substance, the high end for a readily soluble substance. By IC50 is commonly meant the point on the concentration scale where inhibition reaches its midpoint. The low end stands for greater potency, the high end for weaker potency. In general, half-life refers to the time needed for the level to fall by half in the phase considered. The term bioavailability denotes the share of a dose that reaches the circulation, judged against a reference dose that is usually intravenous. A higher bioavailability goes with much systemic uptake. The term IC20 denotes the concentration needed for an effect of 20%. A word on the ED50: it is the dose that gives a 50% effect, or the effect in half of the subjects. As for `COC(=O)N[C@@H]1CC(C)(C)c2ccc(Nc3nc(NCC(F)F)c4occc4n3)cc2NC1=O`, the clearance in [3] is 2.83 mL/min/kg; in [6], 28.3 mL/min/kg. For the same compound, the AUC in series [4] is 180 ng·h/mL; in series [22], 2340 ng·h/mL. In addition, the Cmax was 36 ng/mL in series [5] and 151 ng/mL in series [12]. In series [7], this compound showed a solubility at 48 h of more than 67 µM. In series [8], the EAUC50 worked out at 3.9 µg·h/mL. Moreover, the IC50 in series [9] is more than 20 µM. Also, the half-life in series [10] is 9.9 h; in series [26] it was 2 h. Besides, the inhibition in vivo at 0.3 mg/kg in series [11] amounted to 21%. In series [1], the inhibition in vivo at 3 mg/kg came to 28%. The inhibition in vivo at 30 mg/kg in [13] was found to be 95%. For the same compound, the Vd in series [14] was 2.3 L/kg; in [24], 4.6 L/kg. Further, the Activity result in [15] is given as “Non-Toxic”. Also, the CL free in series [16] was less than 38.3 mL/min/kg; in series [2] it was 177 mL/min/kg. The figures for the bioavailability in series [17] and in [21] were 40% and 27%, respectively. Moreover, the inhibition in vivo at 10 mg/kg in series [18] is 75%. The IC20 in series [19] was more than 10 µM. For the same compound, the inhibition in vivo at 1 mg/kg in series [20] came out at 21%. Besides, the TDI entry in [23] was “Not Active”. The ED50 in series [25] came out at 9 mg/kg.

With `COC(=O)N[C@H]1CC(C)(C)c2ccc(Nc3nc(NC4CC4)c4occc4n3)cc2NC1=O`, the values for the CL free in series [16] and in series [2] were 118 mL/min/kg and 332 mL/min/kg, respectively.

The compound `CCNc1nc(Nc2ccc3c(c2)NC(=O)COC3(C)C)nc2ccoc12` yielded a solubility at 48 h in series [7] of more than 67 µM. In addition, the CL free in series [16] is 91.7 mL/min/kg; in series [2] it was 318 mL/min/kg.

On to `CCCNc1nc(Nc2ccc3c(c2)NC(=O)COC3(C)C)nc2ccoc12`, for which the solubility at 48 h in series [7] is more than 200 µM. Moreover, the CL free was 307 mL/min/kg in series [16] and 373 mL/min/kg in series [2].

`O=C1CCc2ccc(Nc3nc(NCC(F)(F)F)c4occc4n3)cc2N1` showed a CL free in series [2] of 365 mL/min/kg.
